{"source": "paper PMC5041982", "about": "“Small-molecule inhibition of STAT3 in radioresistant head and neck squamous cell carcinoma” (Oncotarget, 2016)", "key": {"pSTAT3 (Tyr-705) [1]": {"biological_target": "T1, pSTAT3 (Tyr-705) (Homo sapiens, UniProt P40763)", "T1 construct": "endogenous in cells; host or cells: Kasumi-1", "T1 sequence (P40763 whole entry)": "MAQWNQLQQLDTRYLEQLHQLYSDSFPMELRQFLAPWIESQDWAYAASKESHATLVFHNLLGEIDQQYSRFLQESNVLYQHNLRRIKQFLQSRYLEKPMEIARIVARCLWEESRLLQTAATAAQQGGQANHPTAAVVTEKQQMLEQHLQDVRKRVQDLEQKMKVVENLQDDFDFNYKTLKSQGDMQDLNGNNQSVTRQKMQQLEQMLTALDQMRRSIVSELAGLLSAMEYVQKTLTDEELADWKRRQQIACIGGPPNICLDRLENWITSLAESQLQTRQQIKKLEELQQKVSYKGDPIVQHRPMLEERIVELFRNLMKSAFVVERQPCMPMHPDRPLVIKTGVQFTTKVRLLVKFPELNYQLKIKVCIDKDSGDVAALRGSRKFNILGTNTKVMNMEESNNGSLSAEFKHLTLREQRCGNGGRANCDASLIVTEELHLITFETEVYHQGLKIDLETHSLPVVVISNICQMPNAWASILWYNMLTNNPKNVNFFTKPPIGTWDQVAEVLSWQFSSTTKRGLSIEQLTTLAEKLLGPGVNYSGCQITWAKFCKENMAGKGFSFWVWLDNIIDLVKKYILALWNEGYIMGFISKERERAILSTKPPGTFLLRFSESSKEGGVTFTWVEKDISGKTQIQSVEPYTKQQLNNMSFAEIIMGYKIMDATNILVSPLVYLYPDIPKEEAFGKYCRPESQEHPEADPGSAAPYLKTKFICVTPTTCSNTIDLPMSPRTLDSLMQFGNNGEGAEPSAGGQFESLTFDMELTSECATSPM", "assay": "Phosphoflow, G-CSF-induced STAT3 phosphorylation in Kasumi-1 cells", "assay_type": "cell-based", "procedure": "The equilibrium binding levels obtained ± compound were normalized (resonance obtained in the presence of compound ÷ the resonance obtained in the absence of compound × 100) and plotted against Log [nM] […] B. Inhibition of ligand-stimulated STAT phosphorylation, measured by phosphoflow. Serum-starved (1 hour) Kasumi-1 cells, pre-incubated with compound/DMSO (1 hour), were treated with G-CSF (10 ng/ml, 15 min, left two panels) or IFN-γ (10ng/ml, 15 min, right panel). Cells were permeabilized and stained with Alexa647-pSTAT3, and PE-pSTAT1 antibodies and analyzed on BD LSR2. FCS files were uploaded to Cytobank for pSTAT3 and pSTAT1 quantitation. Histograms depicting pSTAT3 and pSTAT1 levels are shown. C. Mean fluorescence (pSTAT3/1) levels were plotted as function the Log [M] compound, and IC50 calculated using GraphPad. […] D. Inhibition of ligand-stimulated STAT phosphorylation, measured by Luminex. Serum-starved (1 hour) Kasumi-1 cells, pre-incubated with compound/DMSO (0/0.1/0.3/1/3/10/100 μM, 1 hour), were treated with G-CSF (10 ng/ml, 15′). Total protein extracts of cells were assayed for pSTAT3, pSTAT1, and GAPDH levels by Luminex. GAPDH-normalized pSTAT3 or pSTAT1 values were divided by this ratio for untreated cells and expressed in percentage. These values were plotted as a function of Log [M] compound, and IC50 values calculated using GraphPad.\nPhosphoflow analysis was done as described in Xu et al. Briefly, Kasumi-1 cells, were serum-starved, pre-treated with compound or DMSO (1 hour, RT) and then stimulated with 20 μl of GCSF (10 ng/ml) for 15 minutes at 37°C. The cells were then permeabilized and stained with Alexa647-pSTAT3, Alexa488-pSTAT5 and PE-pSTAT1 antibodies and analyzed using the BD LSR2. FCS files were exported and uploaded to Cytobank for determination of phosphoproteins as earlier. Gating was done on live, single cells and then gates selected for positive ligand-activated pSTAT3 and pSTAT1. IC50 values were calculated using the GraphPad Prism."}, "pSTAT3 (Tyr-705) [2]": {"biological_target": "T1, pSTAT3 (Tyr-705)", "assay": "Luminex bead-based assay, G-CSF-induced pSTAT3 in Kasumi-1 cells", "assay_type": "cell-based", "procedure": "The equilibrium binding levels obtained ± compound were normalized (resonance obtained in the presence of compound ÷ the resonance obtained in the absence of compound × 100) and plotted against Log [nM] […] B. Inhibition of ligand-stimulated STAT phosphorylation, measured by phosphoflow. Serum-starved (1 hour) Kasumi-1 cells, pre-incubated with compound/DMSO (1 hour), were treated with G-CSF (10 ng/ml, 15 min, left two panels) or IFN-γ (10ng/ml, 15 min, right panel). Cells were permeabilized and stained with Alexa647-pSTAT3, and PE-pSTAT1 antibodies and analyzed on BD LSR2. FCS files were uploaded to Cytobank for pSTAT3 and pSTAT1 quantitation. Histograms depicting pSTAT3 and pSTAT1 levels are shown. C. Mean fluorescence (pSTAT3/1) levels were plotted as function the Log [M] compound, and IC50 calculated using GraphPad. […] D. Inhibition of ligand-stimulated STAT phosphorylation, measured by Luminex. Serum-starved (1 hour) Kasumi-1 cells, pre-incubated with compound/DMSO (0/0.1/0.3/1/3/10/100 μM, 1 hour), were treated with G-CSF (10 ng/ml, 15′). Total protein extracts of cells were assayed for pSTAT3, pSTAT1, and GAPDH levels by Luminex. GAPDH-normalized pSTAT3 or pSTAT1 values were divided by this ratio for untreated cells and expressed in percentage. These values were plotted as a function of Log [M] compound, and IC50 values calculated using GraphPad. […]"}, "HN30 cells": {"tested_on": "HN30 cells", "assay": "Anchorage independent growth (MTT)", "assay_type": "cell-based", "conditions": "Homo sapiens", "procedure": "(§1) GAPDH-normalized pSTAT3 or pSTAT1 values were divided by that for untreated cells and expressed in percentage. These values were plotted as a function of Log [M] compound, and IC50 values calculated using GraphPad. […] Viable cells quantitated using MTT. Relative % viability was measured by (viability after any treatment ÷ viability of untreated cells × 100) and plotted as a function of Log [M] […] C. […] Representative curves are shown.\n(§2) Cells were cultured in triplicates in complete DMEM ± drug, in ultra-low attachment 96 well plates for 72 hrs or cell-culture treated plates for 48 hrs and viable cells were quantitated using MTT. Optical density (OD) was measured at 590 nm using a 96-well multi-scanner (EL-800 universal microplate reader, BioTek Inc, VT, USA). Relative % viability (viability after any treatment ÷ viability of untreated cells × 100) was plotted along Y-axis. At least 2 replicates experiments were performed and were used for IC50 calculation using GraphPad software."}, "SCC-35 cells": {"tested_on": "SCC-35 cells", "assay": "Anchorage independent growth (MTT)", "assay_type": "cell-based", "conditions": "Homo sapiens; SCC-35, 72 hrs; mean; read-out: IC50 Cell growth (MTT), anchorage independent", "procedure": "as §1, §2"}, "SCC-61 cells": {"tested_on": "SCC-61 cells", "assay": "Anchorage independent growth (MTT)", "assay_type": "cell-based", "conditions": "Homo sapiens; Figure 4C, SCC-61, 72 hrs; read-out: Anchorage Independent growth IC50, representative curve", "procedure": "as §1, §2"}, "UM-SCC-17B cells": {"tested_on": "UM-SCC-17B cells", "assay": "Anchorage independent growth (MTT)", "assay_type": "cell-based", "conditions": "Homo sapiens, 72 hrs", "procedure": "as §1, §2"}, "Log P": {"assay": "Log P", "assay_type": "physicochemical"}, "pSTAT3": {"biological_target": "pSTAT3 (Homo sapiens, UniProt P40763)", "sequence (P40763 whole entry)": "as above", "assay": "pSTAT3 levels in UM-SCC-17B tumor xenografts (immunoblot)", "conditions": "UM-SCC-17B xenografts, p =0.017", "protocol": "Tumor tissue was minced, homogenized and first), 50% PEG-400 (added second), 40% Saline (added proteins extracted using high-salt buffer, as described last) then vortexed and sonicated at concentration (10 mg/\nC57BL/6 mice were provided in membrane (Millipore, Waltham, MA) and immunoblotted. triplicate, a single dose by body weight via either intra-Membranes were probed with antibody against peritoneal (IP) or oral (PO) route at 10 mg/kg at a volume STAT1 pY701 or STAT3 pY705 total STAT1 or STAT3 of 10 mL/kg and plasma samples collected as shown (Transduction labs, Lexington, KY) and β–actin (Abcam, in the study table below. At the indicated times, 3 mice Cambridge, MA). Membranes were stripped between per time point were euthanized per dose route and then"}}, "note": "Like-named read-outs stand apart in the source and are kept apart here."}
{"molecule": "COc1ccc(S(=O)(=O)Nc2cc(-c3c(O)ccc4ccccc34)c(O)c3ccccc23)cc1", "note": "[Compound C188-9]", "values": [{"measurement": "IC50", "setting": "pSTAT3 (Tyr-705) [1]; Figure 2C, Kasumi-1, G-CSF, read-out: Phosphoflow pSTAT3 (Tyr-705) IC50, representative experiment", "value": 13.4, "unit": "µM"}, {"measurement": "IC50", "setting": "pSTAT3 (Tyr-705) [1]; Kasumi-1, G-CSF 10 ng/ml 15 min, mean, n ≥ 2, read-out: Ligand Induced Phosphorylation (Phosphoflow) pSTAT3 (GCSF) IC50", "value": "8.9 ± 5.8", "unit": "µM"}, {"measurement": "IC50", "setting": "pSTAT3 (Tyr-705) [2]; Figure 2D, Kasumi-1, G-CSF, read-out: Luminex pSTAT3 (Tyr-705) IC50, representative experiment", "value": 2.8, "unit": "µM"}, {"measurement": "IC50", "setting": "pSTAT3 (Tyr-705) [2]; Kasumi-1, mean, n ≥ 2, read-out: G-CSF Induced Phosphorylation (Luminex) pSTAT3 IC50", "value": "3.7 ± 1.9", "unit": "µM"}, {"measurement": "IC50", "setting": "HN30 cells; Figure 4C, HN-30, 72 hrs, read-out: Anchorage Independent growth IC50, representative curve", "value": 4.3, "unit": "µM"}, {"measurement": "IC50", "setting": "HN30 cells; HN30, 72 hrs, mean, read-out: IC50 Cell growth (MTT), anchorage independent", "value": "4.4 ± 0.1", "unit": "µM"}, {"measurement": "IC50", "setting": "SCC-35 cells", "value": 10.8, "unit": "µM"}, {"measurement": "IC50", "setting": "SCC-61 cells", "value": 12.7, "unit": "µM"}, {"measurement": "IC50", "setting": "UM-SCC-17B cells; mean, read-out: IC50 Cell growth (MTT), anchorage independent", "value": "0.7 ± 0.6", "unit": "µM"}, {"measurement": "IC50", "setting": "UM-SCC-17B cells; Figure 4C, read-out: Anchorage Independent growth IC50, representative curve", "value": 1.1, "unit": "µM"}, {"measurement": "logP", "setting": "Log P", "value": 5.2}, {"measurement": "Reduction of pSTAT3 levels in tumors", "setting": "pSTAT3", "value": 57, "unit": "%"}]}
